1 compound from patent US7504432B2 (priority 2000, dated 2009) can be followed below.

Assay [1] deals with T1, M2 receptor in isolated rat right atrium (Rattus norvegicus, UniProt P10980).
T1 construct: A male SD strain rat (weighing 300-500 g) was killed by exsanguination, and the right atrium was isolated; from tissue; host or cells: isolated right atrium of male SD rat
T1 sequence (P10980 1-466): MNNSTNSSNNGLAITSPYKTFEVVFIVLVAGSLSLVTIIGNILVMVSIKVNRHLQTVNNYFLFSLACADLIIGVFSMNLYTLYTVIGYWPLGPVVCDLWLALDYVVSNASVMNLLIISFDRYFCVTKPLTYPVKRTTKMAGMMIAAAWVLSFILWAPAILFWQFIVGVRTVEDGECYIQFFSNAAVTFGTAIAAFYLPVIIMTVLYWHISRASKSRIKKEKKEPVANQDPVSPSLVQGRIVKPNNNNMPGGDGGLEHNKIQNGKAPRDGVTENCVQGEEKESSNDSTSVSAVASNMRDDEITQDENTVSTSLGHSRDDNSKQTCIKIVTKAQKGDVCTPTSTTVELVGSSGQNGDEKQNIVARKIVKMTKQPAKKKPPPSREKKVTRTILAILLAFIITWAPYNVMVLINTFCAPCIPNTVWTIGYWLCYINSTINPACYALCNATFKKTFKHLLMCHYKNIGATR
Briefly: biochemical.

Assay [2] has as its target T2, m3 muscarinic acetylcholine receptor (Homo sapiens, UniProt P20309).
T2 construct: purchased Receptor Biology, Inc; host or cells: CHO cells
Briefly: biochemical. The format is binding.

Assay [3] addresses T3, airway M3 receptor in isolated rat trachea (Rattus norvegicus, UniProt P08483).
T3 construct: A male SD strain rat (weighing 300-500 g) was killed by exsanguination, and the trachea was isolated; from tissue; host or cells: isolated trachea of male SD rat
Briefly: biochemical.

For assay [4], the target named is T4, m2 muscarinic acetylcholine receptor (Homo sapiens, UniProt P08172).
T4 construct: purchased Receptor Biology, Inc; host or cells: CHO cells
T4 sequence (P08172 1-466): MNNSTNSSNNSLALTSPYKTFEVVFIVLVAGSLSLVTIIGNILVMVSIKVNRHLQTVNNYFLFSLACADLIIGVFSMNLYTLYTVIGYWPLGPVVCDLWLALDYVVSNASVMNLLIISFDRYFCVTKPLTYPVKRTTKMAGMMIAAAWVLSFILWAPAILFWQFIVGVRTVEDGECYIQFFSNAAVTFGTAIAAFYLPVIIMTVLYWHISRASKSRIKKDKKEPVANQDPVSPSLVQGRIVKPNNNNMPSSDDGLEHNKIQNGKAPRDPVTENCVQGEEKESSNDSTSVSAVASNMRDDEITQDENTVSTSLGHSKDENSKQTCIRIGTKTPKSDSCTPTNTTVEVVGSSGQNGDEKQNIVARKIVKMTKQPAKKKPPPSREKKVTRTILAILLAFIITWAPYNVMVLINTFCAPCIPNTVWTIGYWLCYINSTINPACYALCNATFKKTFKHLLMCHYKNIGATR
Briefly: biochemical. The format is binding.

A further assay deals with T5, muscarinic M3 receptor (Canis lupus familiaris, UniProt A0A8I3N190).
T5 construct: 12-36 months old male beagle dogs (weighing 10-15 kg) were used; from tissue; host or cells: anesthetized male beagle dogs, airway in vivo
Particulars: dog, in vivo.

The term pKi denotes −log10 of the Ki, conventionally taken in molar units. Low values mean a high Ki, high ones a low Ki.

Structures are written as SMILES. pKi: −log10 of the molar value.

T5 sequence (A0A8I3N190 1-590): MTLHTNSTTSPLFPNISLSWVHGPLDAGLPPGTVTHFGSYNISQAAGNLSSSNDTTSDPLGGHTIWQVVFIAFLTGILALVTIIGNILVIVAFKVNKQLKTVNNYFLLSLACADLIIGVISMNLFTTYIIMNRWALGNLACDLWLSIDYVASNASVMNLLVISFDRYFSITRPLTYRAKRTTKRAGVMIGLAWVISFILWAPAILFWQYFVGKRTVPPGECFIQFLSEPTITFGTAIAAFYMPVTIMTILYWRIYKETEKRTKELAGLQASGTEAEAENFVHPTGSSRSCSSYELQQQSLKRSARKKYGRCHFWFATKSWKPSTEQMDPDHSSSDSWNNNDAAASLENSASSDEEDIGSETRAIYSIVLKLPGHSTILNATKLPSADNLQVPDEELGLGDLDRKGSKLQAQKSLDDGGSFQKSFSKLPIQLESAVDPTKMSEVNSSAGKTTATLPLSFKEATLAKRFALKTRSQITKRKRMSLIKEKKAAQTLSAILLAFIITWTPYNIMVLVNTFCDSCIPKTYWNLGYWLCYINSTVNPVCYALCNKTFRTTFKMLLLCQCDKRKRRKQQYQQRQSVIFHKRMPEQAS
T3 sequence (P08483 whole entry): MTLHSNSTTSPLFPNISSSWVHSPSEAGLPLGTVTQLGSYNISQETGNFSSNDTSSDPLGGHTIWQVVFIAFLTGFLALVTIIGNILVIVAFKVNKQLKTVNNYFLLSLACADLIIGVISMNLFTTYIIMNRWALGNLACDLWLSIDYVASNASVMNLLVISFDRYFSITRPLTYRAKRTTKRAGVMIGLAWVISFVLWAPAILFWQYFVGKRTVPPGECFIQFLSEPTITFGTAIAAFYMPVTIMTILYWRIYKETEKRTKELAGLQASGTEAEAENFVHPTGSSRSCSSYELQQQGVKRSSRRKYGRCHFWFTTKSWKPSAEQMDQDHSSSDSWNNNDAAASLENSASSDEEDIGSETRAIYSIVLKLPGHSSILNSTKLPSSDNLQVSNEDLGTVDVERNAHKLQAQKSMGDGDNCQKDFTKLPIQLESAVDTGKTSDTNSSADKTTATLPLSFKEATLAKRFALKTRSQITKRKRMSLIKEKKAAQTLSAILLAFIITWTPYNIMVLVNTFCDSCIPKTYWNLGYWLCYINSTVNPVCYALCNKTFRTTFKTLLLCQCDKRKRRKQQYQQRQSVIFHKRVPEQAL
T2 sequence (P20309 whole entry): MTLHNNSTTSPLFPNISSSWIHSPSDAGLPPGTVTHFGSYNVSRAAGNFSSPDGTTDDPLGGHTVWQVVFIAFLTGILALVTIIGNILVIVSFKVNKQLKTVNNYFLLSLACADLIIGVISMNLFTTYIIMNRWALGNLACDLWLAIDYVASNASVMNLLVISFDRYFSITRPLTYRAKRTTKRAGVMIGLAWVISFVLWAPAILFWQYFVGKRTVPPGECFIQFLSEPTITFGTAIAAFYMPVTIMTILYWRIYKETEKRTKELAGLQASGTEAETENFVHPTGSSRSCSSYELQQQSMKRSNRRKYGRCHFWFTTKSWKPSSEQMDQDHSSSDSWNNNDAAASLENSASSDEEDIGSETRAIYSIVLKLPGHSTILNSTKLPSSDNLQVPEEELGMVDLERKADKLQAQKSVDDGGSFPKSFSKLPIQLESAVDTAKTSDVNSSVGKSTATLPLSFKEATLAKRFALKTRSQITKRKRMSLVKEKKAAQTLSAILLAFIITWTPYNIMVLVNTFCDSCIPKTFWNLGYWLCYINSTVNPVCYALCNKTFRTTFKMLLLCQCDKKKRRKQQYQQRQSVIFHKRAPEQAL

In assay [1], `N=CN1CCC(CCOC(=O)[C@](O)(c2ccccc2)[C@@H]2CCC(F)(F)C2)CC1` [Example 54, 2-(1-(Iminomethyl)piperidin-4-yl)ethyl (2R)-2-((1R)-3,3-difluorocyclopentyl)-2-hydroxy-2-phenylethanoate] gave a Kb of 10.6 nM. Moreover, in assay [2], the pKi was 10.10 and the “m2/m3 (ratio of Ki)” value was 60.2. This compound also came in with a Kb in assay [3] of 0.21 nM. In assay [3] (rat, right atrium / trachea), the “M2/M3 (ratio of KB)” value turned out to be 50. The compound further had a pKi in assay [4] of 8.32. On muscarinic M3 receptor, the “Shift Value 5 minutes after” value is more than 30, the “Shift Value 4 hours after” value is recorded as more than 30 and the “Shift Value 24 hours after” value is on record as 3.9.
